In patent US20150148551A1, “GENISTEIN FOR REDUCING LEVELS OF STORAGE COMPOUNDS IN THE TREATMENT AND/OR PREVENTION OF LYSOSOMAL STORAGE DISEASES (LSDS)” (3G THERAPEUTICS, INC., priority 2012, published 2015):

Legend:
Format in all cases: cell-based, human
GNS = assay: DNA microarray, GNS expression in fibroblasts exposed to genistein; conditions: for GNS fold change Average: 48 h vs DMSO
Method: (§1) The experiments were conducted to characterise the transcriptomic profile of human fibroblast cells exposed to genistein, and in particular to determine the expression of genes encoding lysosomal enzymes involved in metabolism (i.e. synthesis and degradation) of organic substances. The absence or deficiency of these enzymes' activity is responsible for occurrence of various lysosomal storage diseases (LSD) (including MPS). The tested hypothesis assumed that genistein influences the expression of many genes, among which there are genes coding for enzymes required in metabolism of compounds, which are pathologically stored in LSD. The results provide important information regarding genistein action on the molecular level within the range of gene expression modulation by this substance. The experiment was conducted in biological quintuplicates. Human dermal fibroblasts (HDFa) were exposed in vitro for 1, 24 or 48 hours to: 30, 60 or 100 μM of genistein; 0.05% DMSO (K1); or were untreated (control cells) (K2), and total RNA was isolated and analysed.
(§2) Fibroblast cells were grown in Dulbecco (DMEM) medium supplemented with 10% fetal bovine serum (FBS) with the addition of 1% antibiotics and anti-fungal agents at 37° C. in humidified atmosphere of 5% CO2, until the required confluency was obtained.
(§3) To determine the effect of tested compound on the transcriptom of the fibroblast cells, the growth medium was replaced with fresh medium, either non-supplemented (0.05% DMSO), or containing genistein (30, 60 or 100 μM, in 0.05% DMSO). The exposure was done for 1, 24 or 48 hours.
(§4) Total RNA was isolated from fibroblasts using High Pure RNA Isolation Kit according to the protocol and then it was quantitatively evaluated using Quant-It™ RiboGreen® Assay Kit.
(§5) Biotinylated cRNA was prepared using Ambion Total PrepAmp Kit for Illumina arrays.
(§6) Standard hybridization and quantitative image analysis procedures—Illumina hybridization protocol and Illumina scanning protocol, were used.
(§7) Processing of the results was done during data definition, including: background correction (using background subtraction method), normalization (using quantile normalization algorithm with Illumina GenomeStudio software package: gene expression module version 1.9.0) and summarization (using method, which sums the values of signal intensities from a set of probes).

XYLT1 = assay: DNA microarray, XYLT1 expression in fibroblasts exposed to genistein
Method: as §1, §2, §3, §4, §5, §6, §7

GM2A = assay: DNA microarray, GM2A expression in fibroblasts exposed to genistein; conditions: for GM2A fold change Average: 48 h vs DMSO
Method: as §1, §2, §3, §4, §5, §6, §7

GAA = assay: DNA microarray, GAA expression in fibroblasts exposed to genistein; conditions: for GAA fold change Average: 48 h vs DMSO
Method: as §1, §2, §3, §4, §5, §6, §7

CTNS = assay: DNA microarray, CTNS expression in fibroblasts exposed to genistein; conditions: for CTNS fold change Average: 48 h vs DMSO
Method: as §1, §2, §3, §4, §5, §6, §7

SGSH = assay: DNA microarray, SGSH expression in fibroblasts exposed to genistein; conditions: for SGSH fold change Average: 48 h vs DMSO
Method: as §1, §2, §3, §4, §5, §6, §7

MCOLN1 = assay: DNA microarray, MCOLN1 expression in fibroblasts exposed to genistein; conditions: for MCOLN1 fold change Average: 48 h vs DMSO
Method: as §1, §2, §3, §4, §5, §6, §7

SLC11A2 = assay: DNA microarray, SLC11A2 expression in fibroblasts exposed to genistein; conditions: for SLC11A2 fold change Average: 48 h vs DMSO
Method: as §1, §2, §3, §4, §5, §6, §7

O=c1c(-c2ccc(O)cc2)coc2cc(O)cc(O)c12 [genistein, 4′,5,7-trihydroxy-3-phenylchromen-4-one]
GNS fold change Average 1h30/1hK1 (GNS; 30 μM, 1 h vs 0.05% DMSO): 1.0062 fold change
GNS fold change Average (GNS; 30 μM): 1.2473 fold change
GNS fold change Average 1h60/1hK1 (GNS; 60 μM, 1 h vs 0.05% DMSO): 1.022 fold change
GNS fold change Average (GNS; 60 μM): 1.495 fold change
GNS fold change Average 1h100/1hK1 (GNS; 100 μM, 1 h vs 0.05% DMSO): 1.0219 fold change
GNS fold change Average (GNS; 100 μM): 1.418 fold change
XYLT1 fold change Average 1h30/1hK1 (XYLT1; 30 μM, 1 h vs 0.05% DMSO): 1.058 fold change
XYLT1 fold change Average 24h30/24hK1 (XYLT1; 30 μM, 24 h vs 0.05% DMSO): 0.8611 fold change
XYLT1 fold change Average 48h30/48hK1 (XYLT1; 30 μM, 48 h vs 0.05% DMSO): 0.9745 fold change
XYLT1 fold change Average 24h60/24hK1 (XYLT1; 60 μM, 24 h vs 0.05% DMSO): 0.6217 fold change
XYLT1 fold change Average 1h100/1hK1 (XYLT1; 100 μM, 1 h vs 0.05% DMSO): 1 fold change
XYLT1 fold change Average 24h100/24hK1 (XYLT1; 100 μM, 24 h vs 0.05% DMSO): 0.6324 fold change
XYLT1 fold change Average 48h100/48hK1 (XYLT1; 100 μM, 48 h vs 0.05% DMSO): 0.921 fold change
GM2A fold change Average 1h30/1hK1 (GM2A; 30 μM, 1 h vs 0.05% DMSO): 1.5655 fold change
GM2A fold change Average (GM2A; 30 μM): 1.0452 fold change
GM2A fold change Average 1h60/1hK1 (GM2A; 60 μM, 1 h vs 0.05% DMSO): 1.181 fold change
GM2A fold change Average (GM2A; 60 μM): 1.612 fold change
GM2A fold change Average 1h100/1hK1 (GM2A; 100 μM, 1 h vs 0.05% DMSO): 1.254 fold change
GM2A fold change Average (GM2A; 100 μM): 1.536 fold change
GAA fold change Average 1h30/1hK1 (GAA; 30 μM, 1 h vs 0.05% DMSO): 0.9686 fold change
GAA fold change Average 1h60/1hK1 (GAA; 60 μM, 1 h vs 0.05% DMSO): 1.087 fold change
GAA fold change Average (GAA; 60 μM): 1.763 fold change
GAA fold change Average 1h100/1hK1 (GAA; 100 μM, 1 h vs 0.05% DMSO): 0.935 fold change
GAA fold change Average (GAA; 100 μM): 1.955 fold change
CTNS fold change Average 1h30/1hK1 (CTNS; 30 μM, 1 h vs 0.05% DMSO): 1.0024 fold change
CTNS fold change Average (CTNS; 30 μM): 1.5216 fold change
CTNS fold change Average 1h60/1hK1 (CTNS; 60 μM, 1 h vs 0.05% DMSO): 0.7997 fold change
CTNS fold change Average (CTNS; 60 μM): 1.577 fold change
CTNS fold change Average 1h100/1hK1 (CTNS; 100 μM, 1 h vs 0.05% DMSO): 0.7964 fold change
CTNS fold change Average (CTNS; 100 μM): 1.64 fold change
SGSH fold change Average 1h30/1hK1 (SGSH; 30 μM, 1 h vs 0.05% DMSO): 1.0703 fold change
SGSH fold change Average 1h60/1hK1 (SGSH; 60 μM, 1 h vs 0.05% DMSO): 1.065 fold change
SGSH fold change Average (SGSH; 60 μM): 1.122 fold change
SGSH fold change Average 1h100/1hK1 (SGSH; 100 μM, 1 h vs 0.05% DMSO): 1.07 fold change
SGSH fold change Average (SGSH; 100 μM): 0.9299 fold change
MCOLN1 fold change Average 1h30/1hK1 (MCOLN1; 30 μM, 1 h vs 0.05% DMSO): 1.065 fold change
MCOLN1 fold change Average 1h60/1hK1 (MCOLN1; 60 μM, 1 h vs 0.05% DMSO): 1.038 fold change
MCOLN1 fold change Average (MCOLN1; 60 μM): 1.439 fold change
MCOLN1 fold change Average 1h100/1hK1 (MCOLN1; 100 μM, 1 h vs 0.05% DMSO): 1.013 fold change
MCOLN1 fold change Average (MCOLN1; 100 μM): 1.482 fold change
SLC11A2 fold change Average 1h30/1hK1 (SLC11A2; 30 μM, 1 h vs 0.05% DMSO): 1.0227 fold change
SLC11A2 fold change Average (SLC11A2; 30 μM): 1.2196 fold change
SLC11A2 fold change Average 1h60/1hK1 (SLC11A2; 60 μM, 1 h vs 0.05% DMSO): 1.053 fold change
SLC11A2 fold change Average (SLC11A2; 60 μM): 1.549 fold change
SLC11A2 fold change Average 1h100/1hK1 (SLC11A2; 100 μM, 1 h vs 0.05% DMSO): 1.056 fold change
SLC11A2 fold change Average (SLC11A2; 100 μM): 1.499 fold change
